Experimental data as given in patent US12318435B2, “Recombinant protein produced from cholinesterase gene derived from Pseudomonas aeruginosa and the composition comprising the same for treating or preventing a neurological disease” (priority 2019, dated 2025).

Key:
Assay type in all cases: in vivo
choline = assay: Blood level of choline in pesticide-exposed animal model; conditions: serum of the mice of Experimental Example 2; for Level of blood acetylcholine, Concentration: absorbance 570 nm
Protocol: In order to determine the effect on the blood level of choline of the inventive NP protein in pesticide-exposed animal model, following test was performed by the procedure disclosed in the literature (Choline/Acetylcholine Quantification Colorimetric/Fluorometric Kit, Biovision incorporated 155 S Milpitas Boulevard, Milpitas, Calif. 95035 USA).
(§1) Specific pathogen-free female ICR mice (about 20 g, aged 6 weeks) were purchased from ORIENT Co. (Seoul, Korea) and acclimated with the experimental environment for 1 week.
(§2) The mice used in Experimental Example 2 intraperitoneally injected with […] of NP protein as a test sample group, were killed with carbon dioxide gas (Shinyang Oxygen Industry, Korea) and the blood was collected from the heart to isolate the serum.
The choline level of blood serum was determined Choline/Acetylcholine Quantification Colorimetric/Fluorometric Kit (Cat. No. K615-100, Biovision).
1 μL of serum was added to 49 μL of buffer solution in the kit and the reaction mixture containing […] of buffer solution, 2 μL of choline probe, 2 μL of ACHE and 2 μL of enzyme mixture solution was added thereto to react together in the shadow at 25° C. for 30 mins.
30 mins after the reaction, the absorbance of the reaction solution was determined at 570 nm using by spectrometer (Multiskan Go., Thermo Scientific) and the determined level was transformed into absolute value by comparing with the level of standard curve.
The level of choline was calculated according to following Math. 1 Blood Level of choline(nmole/mL or micromole)=(calculated level of choline through standard curve)/(the amount of samples in each well;mL). [Math. 1] 3-2. Test Result

ICR mice = assay: Survival rate in pesticide-exposed animal model; conditions: female ICR mice, intraperitoneal; 250 μg NP protein, 30 μg carbofuran, 9 mg trichlorfon; NP 40 mins before pesticide; survival observed for 30 mins
Protocol: In order to determine the survival rate of the inventive NP protein on pesticide-exposed animal model, following test was performed by the procedure disclosed in the literature (Gupta, Ramesh C., ‘Carbofuran toxicity’, Journal of Toxicology and Environmental Health, Part A, 43:4, pp 383-418, 1994).
as §1
250 μg of NP protein was intraperitoneally injected to the mice as a test sample group to observe the behavior of the mice for 40 mins and 30 μg of carbofuran and 9 mg of trichlorfon were intraperitoneally injected to the mice to observe the survival rate of the mice for 30 mins.
The group intraperitoneally injected with only 30 μg of carbofuran or 9 mg of trichlorfon were used as positive control groups to observe the survival rate of the mice and the group intraperitoneally injected with only distilled water […] was used as a negative control group to observe the survival rate of the mice.

ACHE activity = assay: Serum ACHE activity of pesticide-exposed mice; conditions: serum of the mice of Experimental Example 2; for ACHE activity, Concentration (mU/mL): 25° C., 570 nm
Protocol: as §1, §2
30 mins after the reaction, the absorbance of the reaction solution was determined at every 1 min at 570 nm using by spectrometer (Multiskan Go., Thermo Scientific) and the determined level was calculated according to following Math. […] [Math. 2] 4-2. Test Result

## CNC(=O)Oc1cccc2c1OC(C)(C)C2 [Carbofuran]
choline
  amount of acetylcholine (in words): sharply increased amount of acetylcholine
  Level of blood acetylcholine, Concentration: 1.8 nmol/mL
ICR mice
  Survival rate (%): 0%
ACHE activity
  ACHE activity compared with negative control group (in words): decreased ACHE activity
  ACHE activity, Concentration (mU/mL): 463.8 mU/mL

## COP(=O)(OC)C(O)C(Cl)(Cl)Cl (stereo not shown) [Trichlorfon, trichlorfon]
choline
  amount of acetylcholine (in words): sharply increased amount of acetylcholine
  Level of blood acetylcholine, Concentration: 1.4 nmol/mL
ICR mice
  Survival rate (%): 60%
ACHE activity
  ACHE activity compared with negative control group (in words): decreased ACHE activity
  ACHE activity, Concentration (mU/mL): 117.7 mU/mL
